Experimental data reported in patent US12043645B2, “Adenosine analogs as methyltransferase inhibitors for treating cancer” (MEMORIAL SLOAN KETTERING CANCER CENTER, priority 2017, dated 2024).

What was measured:
Type in all cases: cell-based
[1] = test system: HCC1954 breast cancer cells; assay: Transwell invasion assay
Procedure: In another example, a compound's effect on cancer cell migration and invasion were evaluated in a transwell invasion assay. In one such example, addition of compound 6 in a concentration of 5 μM and 10 μM caused an approximately 50% and an approximately 75% reduction, respectively, of invasion of HCC1954 breast cancer cells in the assay.

[2] = test system: MDA-MB-231 cells (BAF155 and PABP1 biomarkers); assay: EC50 assay: western blot of BAF155 and PABP1 biomarkers in MDA-MB-231 cells; details: Homo sapiens, 48 h, two days treatment
Procedure: (§1) 1˜2×10e^5 MCF-7 cells or MDA-MB-231 cells per were seeded into 6-well plate. Two days later, cells were treated with inhibitors or control for additional two days. Then cells were collected by trypsinization, washed with Dulbecco's phosphate buffer saline and lysed by suspension in lysis buffer. The suspension was kept on ice for 30 min to achieve complete lysis or the suspension can be sonicated to achieve complete lysis. After centrifugation, supernatant were collected and total protein was quantified, and western blot samples were prepared with the SDS sample buffer Proteins were transferred to a nitrocellulose membrane for 1.5 hr at 350 mA at cold room. Membranes were blocked with 5% nonfat milk dissolved in PBST at room temperature for 1 hour and incubated overnight with primary antibody diluted in 5% nonfat milk dissolved in PBST at 4° C. Membranes were then washed with PBST for 10 min/each three times, and incubated with HRP-conjugated secondary antibody for 1 hour at room temperature, and washed with PBST for 10 min/each three times, and then detected by ECL reaction and X-ray film exposure. BAF155 and PABP1 were used as biomarkers to determine the EC50 values.

[3] = test system: MCF-7 cells (BAF155 and PABP1 biomarkers); assay: EC50 assay: western blot of BAF155 and PABP1 biomarkers in MCF-7 cells; details: Homo sapiens, MCF7, 48 h, two days treatment
Procedure: as §1

SMILES | reduction of invasion of HCC1954 breast cancer cells ([1]; concentration of 5 μM) | reduction of invasion of HCC1954 breast cancer cells ([1]; concentration of 10 μM) | EC50 [2] | EC50 [3]
COc1ccc(CCNC(=O)C(CC[C@H](CNCc2ccccc2)C[C@H]2O[C@@H](n3cnc4c(N)ncnc43)[C@@H](O)C2O)NC(=O)CC(C)(C)C2=C(C)C(=O)C(C)=C(C)C2=O)cc1 (stereo partly shown) [Example 6] | approximately 50% | approximately 75% | < 0.5 µM | –
COc1ccc(CCNC(=O)[C@H](CC[C@H](CNCc2ccccc2)C[C@H]2O[C@@H](n3cnc4c(N)ncnc43)[C@@H](O)C2O)NC(=O)CC(C)(C)c2c(C)cc(C)cc2OC(C)=O)cc1 (stereo partly shown) [Example 3] | – | – | – | < 5 µM
CC1=CC(=O)C(C(C)(C)CC(=O)N[C@@H](CC[C@H](CNCc2ccccc2)C[C@H]2O[C@@H](n3cnc4c(N)ncnc43)[C@@H](O)C2O)C(=O)O)=CC1=O (stereo partly shown) [Example 4] | – | – | – | < 10 µM
CC(=O)Oc1cc(C)cc(C)c1C(C)(C)CC(=O)N[C@@H](CC[C@H](CNCc1ccccc1)C[C@H]1O[C@@H](n2cnc3c(N)ncnc32)[C@@H](O)C1O)C(=O)O (stereo partly shown) [Example 2] | – | – | – | 10 µM
COc1ccc(CCNC(=O)[C@@H](N)CC[C@H](CNCc2ccccc2)C[C@H]2O[C@@H](n3cnc4c(N)ncnc43)[C@@H](O)C2O)cc1 (stereo partly shown) [Example 1] | – | – | – | 15 µM
